# Where a SMILES comes first, the peptide text is derived from it. Bridges are numbered along the chain shown (N, C = ends).
# Columns and labels:
# healthy men [1] = test: Plasma glucose and VAS ratings during the pharmacokinetic study; assay type: in vivo, human
# Procedure: Eight healthy men, recruited among participants in the placebo-controlled, crossover study, were included in an additional clinical study investigating the kinetic parameters of exogenous LEAP2. Each participant underwent a single experimental day with intravenous infusion of LEAP2 (10 min at a rate of ∼101 pmol/kg/min followed by 110 min at ∼25 pmol/kg/min) (see Figure S1B for an overview of the clinical study design). […] Fasting schedule for participants and all instructions from 48 h prior to the experimental day were similar to the placebo-controlled, crossover study. […] LEAP2 infusion was started at timepoint 0 min and discontinued after 120 min. Blood samples were drawn every 15 min from timepoint −30 to 270 min and, additionally, at timepoints 118, 122, 124, 127 and 130 min. Plasma glucose was measured bedside every 15 min from timepoint −30 to 180 min and every 30 min from timepoint 180 to 270 min with a mean concentration of 4.85 ± 0.02 mmol/L. For analytical procedures related to plasma glucose and LEAP2 concentrations, please see the section “Human plasma analyses”. Every 30 min from time −30 to 270 min, participants rated appetite-related sensations on 100 mm VAS[34] with a score (median (interquartile range)) for hunger of 72 (59–79) mm, prospective food consumption 73 (65–82) mm, satiety 22 (14–33) mm, fullness 21 (12–31) mm, comfort 78 (72–90) mm, thirst 78 (71–89) mm and nausea 3.0 (0–9.0).
# healthy men [2] = test: Ad libitum meal test at the end of the infusion period; assay type: in vivo, human; conditions: healthy men n = 20, iv LEAP2 ~25 pmol/kg/min
# Procedure: The infusion was terminated when participants had finished eating.
# Unless otherwise stated, results are presented as mean ± SEM. Baseline values were calculated as a mean of timepoints −35, −10 and 0 min or, when only available −10 and 0 min. Baseline values for the postprandial period were calculated as a mean of timepoint 60 min. Calculations of AUC were based on the trapezoidal rule. AUC values are reported for the period 0 to 255 min. To assess the fasting and postprandial periods separately, AUC values are reported for the periods 0 to 60 min and 60 to 255 min, respectively. Student’s paired t test was used to test for differences in baseline, peak, time to peak, AUC and mean values and ad libitum food intake in men. Indirect calorimetry and thermal imaging data were fitted to a repeated-measures mixed effects model with the intervention and timepoints as independent variables with interaction and Geisser-Greenhouse correction. Šidák’s post hoc test was used to compare LEAP2 to placebo for each timepoint. For analysis of endogenous LEAP2 concentrations in response to a liquid mixed meal test, postprandial data during placebo infusion were fitted to a repeated-measures mixed effects model with time as a fixed effect and the individual participant as a random effect with Geisser-Greenhouse correction. Dunnett’s post hoc test was used to compare endogenous LEAP2 concentrations at each timepoint (75 to 255 min) to the postprandial baseline. Mouse plasma glucose, food intake and insulin data were analyzed by a repeated-measures two-way ANOVA with Šidák’s post hoc test. Statistical analyses were carried out using GraphPad Prism v9.0.0 and v9.1.1 (GraphPad Software, San Diego, California). A two-sided p value < 0.05 was considered statistically significant. The population size calculation was based on data from a previous study investigating the reproducibility of an ad libitum meal in healthy men.[41] Eighteen participants were needed to detect a difference of minimum 500 kJ in ad libitum food intake with a with-in subject difference of 739 kJ, a power of 80% and the above-mentioned significance level. To ensure sufficient power, 20 participants were included.
# [3] = healthy fasting men n = 8, -30 to 270 min, median (interquartile range)
smiles,measurement,setting,value
"CC[C@H](C)[C@@H]1NC(=O)[C@@H]2CSSC[C@@H](C(=O)N[C@@H](CO)C(=O)N[C@@H](CC(C)C)C(=O)N[C@@H](CO)C(=O)N[C@H](C(=O)N[C@@H](C)C(=O)N[C@@H](CCC(N)=O)C(=O)N[C@@H](CCC(=O)O)C(=O)O)C(C)C)NC(=O)[C@H](CCCNC(=N)N)NC(=O)[C@H](CCCNC(=N)N)NC(=O)[C@H](CCCCN)NC(=O)[C@H](CCCNC(=N)N)NC(=O)[C@H](CSSC[C@H](NC(=O)[C@H](CO)NC(=O)[C@H](C)NC(=O)CNC(=O)[C@@H](NC(=O)[C@@H]3CCCN3C(=O)[C@H](CCCNC(=N)N)NC(=O)[C@H](CC(C)C)NC(=O)[C@H](CO)NC(=O)[C@@H](NC(=O)CNC(=O)[C@H](CCCNC(=N)N)NC(=O)[C@H](Cc3c[nH]c4ccccc34)NC(=O)[C@H](Cc3ccccc3)NC(=O)[C@@H]3CCCN3C(=O)[C@@H](NC(=O)[C@@H](N)CCSC)[C@@H](C)O)C(C)C)[C@@H](C)CC)C(=O)N[C@@H](CCCNC(=N)N)C(=O)N[C@@H](CC(=O)O)C(=O)N[C@@H](CC(=O)O)C(=O)N[C@@H](CO)C(=O)N[C@@H](CCC(=O)O)C(=O)N2)NC(=O)[C@H](CC(C)C)NC(=O)[C@H](CCCNC(=N)N)NC(=O)[C@H]([C@@H](C)O)NC1=O [LEAP2, liver-expressed antimicrobial peptide 2] (H-MTPFWRGVSLRPIGASCRDDSECITRLCRKRRCSLSVAQE-OH; disulfide 17-28, 23-33 (inferred); N-terminus and C-terminus assumed)",plasma glucose mean concentration during the pharmacokinetic study,"healthy men [1]; healthy fasting men n = 8, -30 to 270 min, LEAP2 infusion 0 to 120 min",4.85 ± 0.02 mmol/L
same,VAS comfort,healthy men [1]; [3],78 (72–90) mm
same,VAS fullness,healthy men [1]; [3],21 (12–31) mm
same,VAS prospective food consumption,healthy men [1]; [3],73 (65–82) mm
same,VAS satiety,healthy men [1]; [3],22 (14–33) mm
same,VAS thirst,healthy men [1]; [3],78 (71–89) mm
same,VAS hunger,"healthy men [1]; healthy fasting men n = 8, every 30 min from -30 to 270 min, LEAP2 infusion 0 to 120 min, median (interquartile range)",72 (59–79) mm
same,mean difference in ad libitum food intake per kg body weight (placebo vs LEAP2),"healthy men [2]; 95% CI, p = 0.0029",5.4 kJ/kg
same,mean difference in total ad libitum food intake (placebo vs LEAP2),"healthy men [2]; 95% CI, p = 0.0041",432 kJ
same,mean difference in duration of the ad libitum meal (placebo vs LEAP2),"healthy men [2]; 95% CI, p = 0.0303",1.5 min
same,reduction in energy intake during ad libitum meal compared with placebo,healthy men [2]; pasta Bolognese served 260 min after start of infusion,~12%

# From publication PMC9043997, “LEAP2 reduces postprandial glucose excursions and ad libitum food intake in healthy men” (Cell Reports Medicine, 2022)
